Source: patent publication US10479780B2, “Aminopyrazole derivatives” (Chugai Seiyaku Kabushiki Kaisha, priority 2015, dated 2019)

How the values were obtained:
Assay type in all cases: biochemical
human Src enzyme = molecular target: T1, human Src enzyme (Homo sapiens, UniProt P12931); assay: Src enzyme inhibitory activity (time-resolved fluorometry, biotinylated peptide phosphorylation); settings: biotinylated peptide phosphorylation, read-out: SRC_IC50
T1 construct: purchased Carna Biosciences, Inc. 08-173
T1 sequence (P12931 whole entry): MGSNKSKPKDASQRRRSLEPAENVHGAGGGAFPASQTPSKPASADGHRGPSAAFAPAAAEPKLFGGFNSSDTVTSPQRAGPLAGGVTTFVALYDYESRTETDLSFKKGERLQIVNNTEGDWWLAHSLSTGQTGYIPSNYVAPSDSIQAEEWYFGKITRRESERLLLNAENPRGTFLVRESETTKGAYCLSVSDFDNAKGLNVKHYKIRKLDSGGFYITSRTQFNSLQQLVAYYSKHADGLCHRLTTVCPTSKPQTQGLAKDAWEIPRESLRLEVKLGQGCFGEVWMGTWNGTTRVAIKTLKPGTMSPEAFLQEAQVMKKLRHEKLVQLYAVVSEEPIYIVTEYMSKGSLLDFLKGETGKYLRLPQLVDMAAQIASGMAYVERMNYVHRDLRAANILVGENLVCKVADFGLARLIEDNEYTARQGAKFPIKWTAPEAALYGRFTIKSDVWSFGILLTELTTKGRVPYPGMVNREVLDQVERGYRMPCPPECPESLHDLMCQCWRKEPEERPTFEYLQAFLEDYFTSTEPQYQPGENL
Procedure, shortened: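 Compounds were tested for blocking tyrosine phosphorylation of a biotinylated peptide substrate by recombinant human Src. Phosphorylated product was quantified by time-resolved fluorometry using europium cryptate and XL665 conjugates, and IC50 was calculated against the compound-free control.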

human Yes1 enzyme = molecular target: T2, human Yes1 enzyme (Homo sapiens, UniProt P07947); assay: Yes1 enzyme inhibitory activity (time-resolved fluorometry, biotinylated peptide phosphorylation); settings: biotinylated peptide phosphorylation, read-out: YES_IC50
T2 construct: made in house
T2 sequence (P07947 whole entry): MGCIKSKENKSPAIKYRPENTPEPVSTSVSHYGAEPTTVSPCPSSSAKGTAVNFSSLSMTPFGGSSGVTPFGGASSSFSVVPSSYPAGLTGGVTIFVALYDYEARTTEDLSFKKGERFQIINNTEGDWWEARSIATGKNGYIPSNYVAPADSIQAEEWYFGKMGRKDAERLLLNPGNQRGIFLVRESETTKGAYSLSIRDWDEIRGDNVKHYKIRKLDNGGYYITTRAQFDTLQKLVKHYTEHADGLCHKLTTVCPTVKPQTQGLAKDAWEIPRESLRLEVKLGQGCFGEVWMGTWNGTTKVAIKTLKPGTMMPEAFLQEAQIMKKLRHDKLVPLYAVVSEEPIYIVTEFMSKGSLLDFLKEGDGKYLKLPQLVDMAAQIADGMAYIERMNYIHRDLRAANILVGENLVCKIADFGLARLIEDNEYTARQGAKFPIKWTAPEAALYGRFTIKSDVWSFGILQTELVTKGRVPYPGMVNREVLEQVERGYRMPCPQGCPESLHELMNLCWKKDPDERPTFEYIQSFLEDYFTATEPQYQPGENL
Procedure, shortened: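 Inhibition was expressed against a compound-free control to give IC50, using TR-FRET read-out (Eu-cryptate anti-pTyr antibody, streptavidin-XL665).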

human Lck enzyme = molecular target: T3, human Lck enzyme (Homo sapiens, UniProt P06239); assay: Lck enzyme inhibitory activity (time-resolved fluorometry, biotinylated peptide phosphorylation); settings: biotinylated peptide phosphorylation, read-out: LCK_IC50
T3 construct: purchased Carna Biosciences, Inc. 08-170
T3 sequence (P06239 whole entry): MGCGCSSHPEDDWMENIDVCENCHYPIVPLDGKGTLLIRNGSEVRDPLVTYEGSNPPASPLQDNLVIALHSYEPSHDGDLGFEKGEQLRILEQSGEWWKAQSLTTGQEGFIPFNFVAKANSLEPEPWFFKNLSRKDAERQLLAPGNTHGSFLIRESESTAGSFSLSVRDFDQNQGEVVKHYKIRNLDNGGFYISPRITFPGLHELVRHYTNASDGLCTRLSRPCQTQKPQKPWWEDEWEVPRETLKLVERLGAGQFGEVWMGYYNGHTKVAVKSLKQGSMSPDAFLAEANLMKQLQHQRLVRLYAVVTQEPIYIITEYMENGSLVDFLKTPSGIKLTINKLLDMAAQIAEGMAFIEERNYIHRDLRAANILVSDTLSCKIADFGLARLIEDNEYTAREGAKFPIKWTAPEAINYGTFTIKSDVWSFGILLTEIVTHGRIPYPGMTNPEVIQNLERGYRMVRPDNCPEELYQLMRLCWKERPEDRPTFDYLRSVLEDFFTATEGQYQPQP
Procedure, shortened: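 Readout pairs a europium cryptate-labelled anti-phosphotyrosine antibody with XL665-streptavidin, measured by time-resolved fluorescence. IC50 derived from percent inhibition against untreated controls.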

Row | IC50 (human Src enzyme) [nM] | IC50 (human Yes1 enzyme) [nM] | IC50 (human Lck enzyme) [nM] | Compound
1 | 270 | 2.7 | 67 | Cc1cnc(F)c(S(=O)(=O)Nc2cc3[nH]c(C(=O)c4cnn(-c5ccc(Oc6ccccc6F)cc5C)c4N)cc3cc2C)c1 [Example 5-1-520, N-[2-[5-amino-1-[4-(2-fluorophenoxy)-2-methylphenyl]pyrazole-4-carbonyl]-5-methyl-1H-indol-5-yl]-2-fluoro-5-methylpyridine-3-sulfonamide]
2 | 470 | 5.8 | 180 | Cc1cnc(F)c(S(=O)(=O)Nc2cc3[nH]c(C(=O)c4cnn(-c5cnc(Oc6c(F)cccc6F)cc5C)c4N)cc3cc2C)c1 [Example 5-1-521, N-[2-[5-amino-1-[6-(2,6-difluorophenoxy)-4-methylpyridin-3-yl]pyrazole-4-carbonyl]-5-methyl-1H-indol-6-yl]-2-fluoro-5-methylpyridine-3-sulfonamide]
3 | 250 | 1.8 | 120 | Cc1cnc(F)c(S(=O)(=O)Nc2cc3[nH]c(C(=O)c4cnn(-c5ccc(Oc6ccccc6F)cc5C)c4N)cc3cc2F)c1 [Example 5-1-522, N-[2-[5-amino-1-[4-(2-fluorophenoxy)-2-methylphenyl]pyrazole-4-carbonyl]-5-fluoro-1H-indol-6-yl]-2-fluoro-5-methylpyridine-3-sulfonamide]
4 | 450 | 6.3 | 200 | Cc1cnc(F)c(S(=O)(=O)Nc2cc3[nH]c(C(=O)c4cnn(-c5cnc(Oc6c(F)cccc6F)cc5C)c4N)cc3cc2F)c1 [Example 5-1-523, N-[2-[5-amino-1-[6-(2,6-difluorophenoxy)-4-methylpyridin-3-yl]pyrazole-4-carbonyl]-5-fluoro-1H-indol-6-yl]-2-fluoro-5-methylpyridine-3-sulfonamide]
5 | 580 | 5.7 | 210 | Cc1cnc(F)c(S(=O)(=O)Nc2cc3[nH]c(C(=O)c4cnn(-c5cnc(Oc6ccccc6F)cc5C)c4N)cc3cc2F)c1 [Example 5-1-524, N-[2-[5-amino-1-[6-(2-fluorophenoxy)-4-methylpyridin-3-yl]pyrazole-4-carbonyl]-5-fluoro-1H-indol-6-yl]-2-fluoro-5-methylpyridine-3-sulfonamide]
6 | 400 | 3.1 | 72 | Cc1cc2cc(C(=O)c3cnn(-c4ccc(Oc5ccccc5F)cc4C)c3N)[nH]c2cc1NS(=O)(=O)c1cccc(Cl)n1 [Example 5-1-525, N-[2-[5-amino-1-[4-(2-fluorophenoxy)-2-methylphenyl]pyrazole-4-carbonyl]-5-methyl-1H-indol-6-yl]-6-chloropyridine-2-sulfonamide]
7 | 620 | 8 | 250 | Cc1cc2cc(C(=O)c3cnn(-c4cnc(Oc5c(F)cccc5F)cc4C)c3N)[nH]c2cc1NS(=O)(=O)c1cccc(Cl)n1 [Example 5-1-526, N-[2-[5-amino-1-[6-(2,6-difluorophenoxy)-4-methylpyridin-3-yl]pyrazole-4-carbonyl]-5-methyl-1H-indol-6-yl]-6-chloropyridine-2-sulfonamide]
8 | 500 | 3.2 | 110 | Cc1cc(Oc2ccccc2F)ccc1-n1ncc(C(=O)c2cc3cc(F)c(NS(=O)(=O)c4cccc(Cl)n4)cc3[nH]2)c1N [Example 5-1-527, N-[2-[5-amino-1-[4-(2-fluorophenoxy)-2-methylphenyl]pyrazole-4-carbonyl]-5-fluoro-1H-indol-6-yl]-6-chloropyridine-2-sulfonamide]
9 | 750 | 8.8 | 230 | Cc1cc(Oc2c(F)cccc2F)ncc1-n1ncc(C(=O)c2cc3cc(F)c(NS(=O)(=O)c4cccc(Cl)n4)cc3[nH]2)c1N [Example 5-1-528, N-[2-[5-amino-1-[6-(2,6-difluorophenoxy)-4-methylpyridin-3-yl]pyrazole-4-carbonyl]-5-fluoro-1H-indol-6-yl]-6-chloropyridine-2-sulfonamide]
10 | 840 | 8.6 | 260 | Cc1cc(Oc2ccccc2F)ncc1-n1ncc(C(=O)c2cc3cc(F)c(NS(=O)(=O)c4cccc(Cl)n4)cc3[nH]2)c1N [Example 5-1-529, N-[2-[5-amino-1-[6-(2-fluorophenoxy)-4-methylpyridin-3-yl]pyrazole-4-carbonyl]-5-fluoro-1H-indol-6-yl]-6-chloropyridine-2-sulfonamide]
11 | 200 | 2.6 | 34 | Cc1cccc(S(=O)(=O)Nc2cc3[nH]c(C(=O)c4cnn(-c5ccc(Oc6ccccc6F)cc5C)c4N)cc3cc2C)n1 [Example 5-1-530, N-[2-[5-amino-1-[4-(2-fluorophenoxy)-2-methylphenyl]pyrazole-4-carbonyl]-5-methyl-1H-indol-6-yl]-6-melhylpyridine-2-sulfonamide]
12 | 480 | 4.9 | 110 | Cc1cccc(S(=O)(=O)Nc2cc3[nH]c(C(=O)c4cnn(-c5cnc(Oc6c(F)cccc6F)cc5C)c4N)cc3cc2C)n1 [Example 5-1-531, N-[2-[5-amino-1-[6-(2,6-difluorophenoxy)-4-melhylpyridin-3-yl]pyrazole-4-carbonyl]-5-methyl-1H-indol-6-yl]-6-methylpyridine-2-sulfonamide]
13 | 290 | 1.6 | 38 | Cc1cccc(S(=O)(=O)Nc2cc3[nH]c(C(=O)c4cnn(-c5ccc(Oc6ccccc6F)cc5C)c4N)cc3cc2F)n1 [Example 5-1-532, N-[2-[5-amino-1-[4-(2-fluorophenoxy)-2-methylphenyl]pyrazole-4-carbonyl]-5-fluoro-1H-indol-6-yl]-6-methylpyridine-2-sulfonamide]
14 | 510 | 4.7 | 120 | Cc1cccc(S(=O)(=O)Nc2cc3[nH]c(C(=O)c4cnn(-c5cnc(Oc6c(F)cccc6F)cc5C)c4N)cc3cc2F)n1 [Example 5-1-533, N-[2-[5-amino-1-[6-(2,6-difluorophenoxy)-4-methylpyridin-3-yl]pyrazole-4-carbonyl]-5-fluoro-1H-indol-6-yl]-6-methylpyridine-2-sulfonamide]
15 | 640 | 5.1 | 170 | Cc1cccc(S(=O)(=O)Nc2cc3[nH]c(C(=O)c4cnn(-c5cnc(Oc6ccccc6F)cc5C)c4N)cc3cc2F)n1 [Example 5-1-534, N-[2-[5-amino-1-[6-(2-fluorophenoxy)-4-methylpyridin-3-yl]pyrazole-4-carbonyl]-5-fluoro-1H-indol-6-yl]-6-methylpyridine-2-sulfonamide]
16 | 390 | 4.1 | 78 | Cc1cc2cc(C(=O)c3cnn(-c4ccc(Oc5ccccc5F)cc4C)c3N)[nH]c2cc1NS(=O)(=O)c1cccc(C#N)n1 [Example 5-1-535, N-[2-[5-amino-1-[4-(2-fluorophenoxy)-2-methylphenyl]pyrazole-4-carbonyl]-5-methyl-1H-indol-6-yl]-6-cyanopyridine-2-sulfonamide]
17 | 560 | 9.2 | 92 | Cc1cc2cc(C(=O)c3cnn(-c4cnc(Oc5c(F)cccc5F)cc4C)c3N)[nH]c2cc1NS(=O)(=O)c1cccc(C#N)n1 [Example 5-1-536, N-[2-[5-amino-1-[6-(2,6-difluorophenoxy)-4-methylpyridin-3-yl]pyrazole-4-carbonyl]-5-methyl-1H-indol-6-yl]-6-cyanopyridine-2-sulfonamide]
18 | 320 | 3 | 57 | Cc1cc(Oc2ccccc2F)ccc1-n1ncc(C(=O)c2cc3cc(F)c(NS(=O)(=O)c4cccc(C#N)n4)cc3[nH]2)c1N [Example 5-1-537, N-[2-[5-amino-1-[4-(2-fluorophenoxy)-2-methylphenyl]pyrazole-4-carbonyl]-5-fluoro-1H-indol-6-yl]-6-cyanopyridine-2-sulfonamide]
19 | 680 | 9.6 | 140 | Cc1cc(Oc2c(F)cccc2F)ncc1-n1ncc(C(=O)c2cc3cc(F)c(NS(=O)(=O)c4cccc(C#N)n4)cc3[nH]2)c1N [Example 5-1-538, N-[2-[5-amino-1-[6-(2,6-difluorophenoxy)-4-methylpyridin-3-yl]pyrazole-4-carbonyl]-5-fluoro-1H-indol-6-yl]-6-cyanopyridine-2-sulfonamide]
20 | 800 | 11 | 220 | Cc1cc(Oc2ccccc2F)ncc1-n1ncc(C(=O)c2cc3cc(F)c(NS(=O)(=O)c4cccc(C#N)n4)cc3[nH]2)c1N [Example 5-1-539, N-[2-[5-amino-1-[6-(2-fluorophenoxy)-4-methylpyridin-3-yl]pyrazole-4-carbonyl]-5-fluoro-1H-indol-6-yl]-6-cyanopyridine-2-sulfonamide]
21 | 350 | 3.5 | 96 | Cc1cc2cc(C(=O)c3cnn(-c4ccc(Oc5ccccc5F)cc4C)c3N)[nH]c2cc1NS(=O)(=O)c1cncc(Cl)c1 [Example 5-1-540, N-[2-[5-amino-1-[4-(2-fluorophenoxy)-2-methylphenyl]pyrazole-4-carbonyl]-5-methyl-1H-indol-6-yl]-5-chloropyridine-3-sulfonamide]
22 | 660 | 12 | 280 | Cc1cc2cc(C(=O)c3cnn(-c4cnc(Oc5c(F)cccc5F)cc4C)c3N)[nH]c2cc1NS(=O)(=O)c1cncc(Cl)c1 [Example 5-1-541, N-[2-[5-amino-1-[6-(2,6-difluorophenoxy)-4-methylpyridin-3-yl]pyrazole-4-carbonyl]-5-methyl-1H-indol-6-yl]-5-chloropyridine-3-sulfonamide]
